Laboratory results as given in patent US4243812A, “Processes for the preparation of glyoxal-2-oxims” (Taiho Pharmaceutical Company, priority 1978, dated 1981).

Experiments:
carrageenin edema = test: Anti-inflammatory activity (Carrageenin edema method); type: in vivo, rat (Wistar strain; settings: 100 mg per kg oral, Wistar-strain male rats, 0.1 ml of 1% carrageenin s.c. left hind paw, edema weight after three hours, vs control group
Method: (2) Anti-inflammatory activity (Carrageenin edema method)
The compounds to be tested were suspended in 0.5% carboxymethyl cellulose solution, and the suspension was orally administrated in 100 mg per kg of Wistarstrain male rats having their weight range of 130 to 170 g which were forced to abstain from food overnight. These rats were then injected subcutaneously into their left hind paws each with 0.1 ml of a physiological NaCl solution having dissolved therein carrageen in 1% concentration. After three hours from said injection, the rats were killed, both hind legs were cut out and promptly weighed. There is assumed as weight of edema a value obtained by deducting a weight of untreated hind leg from that of the carrageenin injected hind leg of the rat. Inhibition ratio of a sample-administrated group to a control group has been sought. The control group was administrated only with 0.5% […] solution in the same manner.

[1] = Acute toxicity (LD50, oral, mice); settings: mouse, in vivo, dd-strain male mice 20 to 25 g, fasted overnight, suspended in 0.5% carboxymethyl cellulose, observed seven days
Text: The compounds to be tested were suspended in 0.5% carboxymethyl cellulose solution, and the suspension was orally administrated in variable amounts in response to the weights of dd-strain male mice having those ranging from 20 to 25 g which were forced to abstain from food overnight.

[2] = test system: acetic acid stretching symptom; test: Analgesic activity (Acetic acid stretching method); type: in vivo, mouse (ddy-strain); settings: 100 mg per kg oral, ddy-strain mice, 0.2 ml of 0.7% acetic acid intraperitoneal
Method: (3) Analgesic activity (Acetic acid stretching method)
After the compounds to be tested were orally administrated in 100 mg per kg of ddy-strain mice having their weight range of 20 to 25 g, 0.2 ml of 0.7% acetic acid was intra-peritoneally administrated to each animal to observe stretching symptom thereby having found the inhibition ratio (%).

SMILES	Anti-inflammatory activity (Carrageenin edema method), inhibition ratio (carrageenin edema) [%]	LD50 at 168 h [1] [mg/kg]	Analgesic activity (Stretching method), inhibition ratio [2] [%]
Cc1cc(C(=O)C=NO)on1 [(3-Methylisoxazole-5-yl)glyoxal-2-oxim, (3-methylisoxazole-5-yl)glyoxal-2-oxim]	83	890	50
O=C(C=NO)c1cc(-c2ccccc2)no1 [(3-Phenylisoxazole-5-yl)glyoxal-2-oxim, (3-phenylisoxazole-5-yl)glyoxal-2-oxim]	56	1690	75
